According to US20070009531A1 (priority 2005, published 2007):
Entries after “also recorded” stand apart in the source; their conditions may differ.

Experiments:
[1] = combination of verapamil and VAD (vincristine, doxorubicin, dexamethasone); cited from earlier work
[2] = pharmacokinetic interaction with co-administered oncolytics in preclinical models; assay type: in vivo; details: several oncolytics
[3] = system: P-gp-associated resistance; assay: in vivo activity in preclinical animal studies
AML = details: older patients, Mylotarg alone, registration trials; cited from earlier work

Question: With `COc1ccc(CCN(C)CCCC(C#N)(c2ccc(OC)c(OC)c2)C(C)C)cc1OC` (stereo not shown) [verapamil] as the compound, how does the patients responded [1] read?
Answer: 5 of 22

Question: Which results are given for `O[C@@H](COc1cccc2ncccc12)CN1CCN([C@@H]2c3ccccc3[C@@H]3[C@H](c4ccccc42)C3(F)F)CC1` [zosuquidar]?
Answer: pharmacokinetic interaction with co-administered chemotherapy [2]: no pharmacokinetic interaction; also recorded: minimal pharmacokinetic (PK) interactions; in vivo activity [3]: good in vivo activity

Question: For gemtuzumab ozogamicin [Mylotarg], which “rate of complete remission (CR+CRp)” value (AML) is on record?
Answer: 26%
